Measurements: PubChem BioAssay (NCI)
Several values for one entry are separate records, joined by “and”; a condition that tells them apart may be missing. Equal entries are not always repeated.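 96-well plates; 48 h exposure; 5 concentrations. Endpoints by linear interpolation between flanking doses. Not reached: highest tested concentration assigned. GI50 = concentration required for 50% inhibition of growth. Definition used: TGI = concentration required for complete inhibition of growth.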

Assays:
Assay in all cases: DTP human tumour cell line panel, 48 h
786-0 renal = system: 786-0 renal
A498 renal = system: A498 renal
A549 NSCLC = system: A549 NSCLC
ACHN renal = system: ACHN renal
BT-549 breast = system: BT-549 breast
CAKI-1 renal = system: CAKI-1 renal
CCRF-CEM leukemia = system: CCRF-CEM leukemia
COLO 205 colon = system: COLO 205 colon
DU-145 prostate = system: DU-145 prostate
HCC-2998 colon = system: HCC-2998 colon
HCT-116 colon = system: HCT-116 colon
HCT-15 colon = system: HCT-15 colon
HL-60(TB) leukemia = system: HL-60(TB) leukemia
HOP-62 NSCLC = system: HOP-62 NSCLC
HOP-92 NSCLC = system: HOP-92 NSCLC
HS 578T breast = system: HS 578T breast
HT29 colon = system: HT29 colon
IGROV1 ovarian = system: IGROV1 ovarian
K-562 leukemia = system: K-562 leukemia
KM12 colon = system: KM12 colon
LOX IMVI melanoma = system: LOX IMVI melanoma
M14 melanoma = system: M14 melanoma
MALME-3M melanoma = system: MALME-3M melanoma
MCF7 breast = system: MCF7 breast
MDA-MB-231 breast = system: MDA-MB-231 breast
MDA-MB-435 = system: MDA-MB-435
MOLT-4 leukemia = system: MOLT-4 leukemia
NCI-H226 lung = system: NCI-H226 lung
NCI-H23 lung = system: NCI-H23 lung
NCI-H460 lung = system: NCI-H460 lung
NCI-H522 lung = system: NCI-H522 lung
NCI/ADR-RES ovarian = system: NCI/ADR-RES ovarian
OVCAR-3 ovarian = system: OVCAR-3 ovarian
OVCAR-4 ovarian = system: OVCAR-4 ovarian
OVCAR-5 ovarian = system: OVCAR-5 ovarian
OVCAR-8 ovarian = system: OVCAR-8 ovarian
PC-3 prostate = system: PC-3 prostate
RPMI-8226 leukemia = system: RPMI-8226 leukemia
RXF 393 renal = system: RXF 393 renal
SF-268 CNS = system: SF-268 CNS
SF-295 CNS = system: SF-295 CNS
SF-539 CNS = system: SF-539 CNS
SK-MEL-2 melanoma = system: SK-MEL-2 melanoma
SK-MEL-28 melanoma = system: SK-MEL-28 melanoma
SK-MEL-5 melanoma = system: SK-MEL-5 melanoma
SK-OV-3 ovarian = system: SK-OV-3 ovarian
SN12C renal = system: SN12C renal
SNB-19 CNS = system: SNB-19 CNS
SNB-75 CNS = system: SNB-75 CNS
SR leukemia = system: SR leukemia
SW-620 colon = system: SW-620 colon
T-47D breast = system: T-47D breast
TK-10 renal = system: TK-10 renal
U251 CNS = system: U251 CNS
UACC-257 melanoma = system: UACC-257 melanoma
UACC-62 melanoma = system: UACC-62 melanoma
UO-31 renal = system: UO-31 renal

In the case of `CCCCCc1c(C)[nH]c(/C=C2\N=C(c3ccc[nH]3)C=C2Oc2ccccc2)c1C`, the GI50 (786-0 renal) is reported as 17.2 nM and 11.8 nM, the TGI (786-0 renal) is reported as 43.9 nM and 45.7 nM and the GI50 (A498 renal) is reported as 16.1 nM and 12.7 nM. The TGI (A498 renal) was 69 nM and 50.8 nM, the GI50 (A549 NSCLC) was 22 nM and 11.7 nM and the TGI (A549 NSCLC) was 56.9 nM and 40.1 nM. The GI50 (ACHN renal) was 17.3 nM, the TGI (ACHN renal) was 111 nM and the GI50 (BT-549 breast) was 40.2 nM and 28.3 nM. For the same compound, the TGI (BT-549 breast) was 538 nM and 1050 nM, the GI50 (CAKI-1 renal) was 23.3 nM and the TGI (CAKI-1 renal) was 55.8 nM and 40.4 nM. For the same compound, the GI50 (CCRF-CEM leukemia) was 9.49 nM, the TGI (CCRF-CEM leukemia) was 1210 nM and 2160 nM and the GI50 (COLO 205 colon) was 30.5 nM. The TGI (COLO 205 colon) was 193 nM and 49.2 nM, the GI50 (DU-145 prostate) was 17.7 nM and the TGI (DU-145 prostate) was 129 nM and 104 nM. For the same compound, the GI50 (HCC-2998 colon) was 17.1 nM, the TGI (HCC-2998 colon) was 217 nM and 1000 nM and the GI50 (HCT-116 colon) was 22.8 nM. For the same compound, the TGI (HCT-116 colon) was 129 nM, the GI50 (HCT-15 colon) was 19.6 nM and the TGI (HCT-15 colon) was 79.8 nM and 41.3 nM. For the same compound, the GI50 (HL-60(TB) leukemia) was 38.4 nM and 15 nM, the TGI (HL-60(TB) leukemia) was 343 nM and 65.6 nM and the GI50 (HOP-62 NSCLC) was 32.2 nM and 27.2 nM. The TGI (HOP-62 NSCLC) was 1890 nM and 1180 nM, the GI50 (HOP-92 NSCLC) was 13.8 nM and the TGI (HOP-92 NSCLC) was 57.7 nM and 32.6 nM. The GI50 (HS 578T breast) was 21.3 nM and 11.1 nM, the TGI (HS 578T breast) was 92.5 nM and 48.7 nM and the GI50 (HT29 colon) was 22.6 nM. The TGI (HT29 colon) was 1370 nM and 1300 nM, the GI50 (IGROV1 ovarian) was 39.1 nM and 24.4 nM and the TGI (IGROV1 ovarian) was 1490 nM and 1230 nM. For the same compound, the GI50 (K-562 leukemia) was 26.3 nM, the TGI (K-562 leukemia) was 3410 nM and the GI50 (KM12 colon) was 11.3 nM. For the same compound, the TGI (KM12 colon) was 49.4 nM and 13.8 nM, the GI50 (LOX IMVI melanoma) was 14.3 nM and the TGI (LOX IMVI melanoma) was 31.2 nM. For the same compound, the GI50 (M14 melanoma) was 21.3 nM and 10.3 nM, the TGI (M14 melanoma) was 50.4 nM and 32.2 nM and the GI50 (MALME-3M melanoma) was 42.4 nM and 28.6 nM. For the same compound, the TGI (MALME-3M melanoma) was 204 nM and 115 nM, the GI50 (MCF7 breast) was 32.6 nM and the TGI (MCF7 breast) was 442 nM and 1050 nM. For the same compound, the GI50 (MDA-MB-231 breast) was 5.56 nM, the TGI (MDA-MB-231 breast) was 29.5 nM and 18.1 nM and the GI50 (MDA-MB-435) was 21.8 nM. The TGI (MDA-MB-435) was 58 nM, the GI50 (MOLT-4 leukemia) was 25.4 nM and 13 nM and the TGI (MOLT-4 leukemia) was 355 nM and 78.3 nM. The GI50 (NCI-H226 lung) was 19.1 nM and 74.5 nM, the GI50 (NCI-H23 lung) was 29.9 nM and 16 nM and the TGI (NCI-H23 lung) was 668 nM and 387 nM. For the same compound, the GI50 (NCI-H460 lung) was 23.1 nM, the TGI (NCI-H460 lung) was 1160 nM and 1050 nM and the GI50 (NCI-H522 lung) was 18.2 nM and 18.1 nM. For the same compound, the TGI (NCI-H522 lung) was 101 nM and 168 nM, the GI50 (NCI/ADR-RES ovarian) was 48.6 nM and 27.8 nM and the TGI (NCI/ADR-RES ovarian) was 255 nM and 174 nM. For the same compound, the GI50 (OVCAR-3 ovarian) was 19.1 nM and 12.2 nM, the TGI (OVCAR-3 ovarian) was 64.2 nM and 40.4 nM and the GI50 (OVCAR-4 ovarian) was 11.3 nM. The TGI (OVCAR-4 ovarian) was 265 nM and 1220 nM, the GI50 (OVCAR-5 ovarian) was 26.2 nM and 10.9 nM and the TGI (OVCAR-5 ovarian) was 1070 nM and 377 nM. The GI50 (OVCAR-8 ovarian) was 27.7 nM and 15 nM, the TGI (OVCAR-8 ovarian) was 138 nM and 56.7 nM and the GI50 (PC-3 prostate) was 30.6 nM. The TGI (PC-3 prostate) was 1220 nM and 166 nM, the GI50 (RPMI-8226 leukemia) was 22.2 nM and the TGI (RPMI-8226 leukemia) was 187 nM and 182 nM. The GI50 (RXF 393 renal) was 17.2 nM and 12.3 nM, the TGI (RXF 393 renal) was 157 nM and 54.6 nM and the GI50 (SF-268 CNS) was 23.4 nM. The TGI (SF-268 CNS) was 1240 nM and 1000 nM, the GI50 (SF-295 CNS) was 24.4 nM and the TGI (SF-295 CNS) was 106 nM. The GI50 (SF-539 CNS) was 24.2 nM and 11.3 nM, the TGI (SF-539 CNS) was 85.6 nM and 38.7 nM and the GI50 (SK-MEL-2 melanoma) was 17.9 nM and 13.9 nM. The TGI (SK-MEL-2 melanoma) was 40.2 nM and 32.9 nM, the GI50 (SK-MEL-28 melanoma) was 39.8 nM and 21.1 nM and the TGI (SK-MEL-28 melanoma) was 192 nM and 101 nM. The GI50 (SK-MEL-5 melanoma) was 16.7 nM and 10.9 nM, the TGI (SK-MEL-5 melanoma) was 34 nM and 24 nM and the GI50 (SK-OV-3 ovarian) was 56.5 nM and 30.9 nM. The TGI (SK-OV-3 ovarian) was 671 nM and 628 nM, the GI50 (SN12C renal) was 36.3 nM and 18 nM and the TGI (SN12C renal) was 232 nM and 144 nM. For the same compound, the GI50 (SNB-19 CNS) was 58.2 nM and 38.7 nM, the TGI (SNB-19 CNS) was 1460 nM and 1440 nM and the GI50 (SNB-75 CNS) was 24.6 nM and 17.5 nM. For the same compound, the TGI (SNB-75 CNS) was 71.9 nM and 55.9 nM, the GI50 (SR leukemia) was 11.7 nM and the GI50 (SW-620 colon) was 24.8 nM. The GI50 (T-47D breast) was 21.1 nM and 14.7 nM, the GI50 (TK-10 renal) was 44.6 nM and 23.4 nM and the TGI (TK-10 renal) was 448 nM and 152 nM. For the same compound, the GI50 (U251 CNS) was 19 nM, the TGI (U251 CNS) was 104 nM and 27.9 nM and the GI50 (UACC-257 melanoma) was 45.4 nM and 30 nM. The TGI (UACC-257 melanoma) was 354 nM and 233 nM, the GI50 (UACC-62 melanoma) was 16.1 nM and 11.1 nM and the TGI (UACC-62 melanoma) was 31.1 nM and 27.4 nM. For the same compound, the GI50 (UO-31 renal) was 25.1 nM and 10.4 nM and the TGI (UO-31 renal) was 109 nM and 24 nM.
